Laboratory results as given in patent EP4703357A1, “TRIAZOLYL-CONTAINING COMPOUNDS” (Chia Tai Tianqing Pharmaceutical Group Co., Ltd., priority 2023, dated 2024).
Where two headings read alike, the source gives them in different places.

Legend:
[1] = test system: Jurkat cells; assay: Inhibitory activity on Jurkat cell proliferation (CCK-8); assay type: cell-based; details: Homo sapiens, 72 h incubation
Protocol: (§1) Jurkat cells in a good growth state were collected into a centrifuge tube, adjusted to a cell density of 5 × 10^4 cells/mL, and seeded in a 96-well plate (100 µL/well). The cells were incubated overnight in a cell incubator. Compounds were added using a nanoliter pipettor such that the final concentrations of the compounds were 1000 nM-0.46 nM (the addition was performed in duplicate). Meanwhile, a control was set. After another 72 h of incubation in the cell incubator, the assay reagent CCK-8 (manufacturer: Dojindo Laboratories, Beijing; 10 µL/well) was added. After 2 h of incubation in the cell incubator, absorbance was measured at 450 nm on an Envision microplate reader. A four-parameter analysis was performed, a dose-response curve was fit, and IC50 was calculated.

[2] = test system: OCI-LY10 cells; assay: Inhibitory activity on OCI-LY10 cell proliferation (CCK-8); assay type: cell-based; details: Homo sapiens, 72 h incubation
Protocol: as §1, with “OCI-LY10 cells” for “Jurkat cells”, “of 9” for “of 5”

[3] = In vitro liver microsomal stability, mouse; assay type: in vitro ADME; details: mouse liver microsome 0.5 mg/mL, NADPH, 37 °C, 1 h
Protocol: (§2) Liver microsome incubation samples were prepared by mixing a PBS buffer (pH = 7.4), a liver microsome solution (0.5 mg/mL), a test compound, and an NADPH + MgCl2 solution, and incubated at 37 °C and 300 rpm for 1 h. Zero-hour samples were prepared by mixing a PBS buffer (pH = 7.4), a liver microsome solution (0.5 mg/mL), and a test compound. An acetonitrile solution containing an internal standard was added to the samples, and supernatants were prepared by protein precipitation, diluted, and then assayed by LC/MS/MS. Table 17. In vitro metabolic stability of related compounds in liver microsomes of various species

[4] = In vitro liver microsomal stability, human; assay type: in vitro ADME; details: human liver microsome 0.5 mg/mL, NADPH, 37 °C, 1 h
Protocol: as §2

[5] = Mouse pharmacokinetics; assay type: in vivo; details: ICR, plasma, po, 3 mg/kg, Mice administered intragastrically 3 mpk; for AUC(0-t): read-out: AUC (0-24)
Protocol: ICR mice weighing 18-22 g were randomized into groups of 9 mice per group after 3-5 days of acclimatization and then administered intragastrically at a dose of 3 mg/kg.
Plasma samples to be tested were prepared by taking blood from the orbit at time points of 15 min, 30 min, 1 h, 2 h, 4 h, 6 h, 8 h, 10 h, and 24 h.
20 µL of each plasma sample to be tested and a standard curve sample were taken, and an acetonitrile solution containing an internal standard was added. A supernatant was obtained by protein precipitation, diluted, and then assayed by LC/MS/MS.
Pharmacokinetic parameters were fitted using a non-compartmental model.

[6] = Mouse pharmacokinetics; assay type: in vivo, ICR mice; details: ICR, plasma; for AUC(0-t): read-out: AUC (0-24)
[7] = 1 mg/kg, Mice administered by single intravenous injection 1 mpk
[8] = po, 3 mg/kg, Mice administered intragastrically 3 mpk

| SMILES | IC50 [1] | IC50 [2] | Mouse liver microsome Residuals at 60 min (%) [3] | Human liver microsome Residuals at 60 min (%) [4] | also measured |
| --- | --- | --- | --- | --- | --- |
| NC(=O)/C(=C/n1cnc(-c2cc(C3CC3)nc(C(F)(F)F)c2)n1)c1cnc(NCC(F)(F)F)nc1 [Compound 16] | ≤ 20 nM | ≤ 40 nM | 90.60% | 88.75% |  |
| C[C@@H](Nc1ncc(/C(=C\n2cnc(-c3cc(C(F)(F)F)nc(C(F)(F)F)c3)n2)C(N)=O)cn1)C(F)(F)F [Compound 5] | ≤ 20 nM | ≤ 40 nM | 99.03% | 97.64% |  |
| NC(=O)/C(=C/n1cnc(-c2cc(C3CC3)nc(C(F)(F)F)c2)n1)c1ccncc1 [Compound 43] | ≤ 20 nM | ≤ 40 nM |  |  |  |
| NC(=O)/C(=C/n1cnc(-c2cc(C(F)(F)F)nc(C(F)(F)F)c2)n1)c1ccc(NCC(F)F)nc1 [Compound 54] | ≤ 20 nM | ≤ 40 nM |  |  |  |
| C[C@@H](Nc1ncc(/C(=C\n2cnc(-c3cc(C4CC4)nc(C(F)(F)F)c3)n2)C(N)=O)cn1)C(F)(F)F [Compound 17] | ≤ 20 nM | ≤ 40 nM | 95.11% | 93.92% |  |
| NC(=O)/C(=C/n1cnc(-c2cc(C(F)(F)F)nc(C(F)(F)F)c2)n1)c1cnc(NCC(F)F)nc1 [2(2-A)] | ≤ 20 nM | ≤ 40 nM | 87.82% | 92.23% | Cmax [5]: 483 ng/mL; Tmax [5]: 3 h; half-life [5]: 154 min; AUC(0-t) [5]: 2730 ng·h/mL; AUC(0-inf) [6, 7]: 879 ng·h/mL; clearance [6, 7]: 19 mL/min/kg; half-life [6, 7]: 75.6 min; AUC(0-t) [6, 7]: 874 ng·h/mL; AUC(0-inf) [6, 8]: 2730 ng·h/mL |
| NC(=O)/C(=C/n1cnc(-c2cc(C3CC3)nc(C(F)(F)F)c2)n1)c1ccc(NCC(F)(F)F)nc1 [Compound 40] | ≤ 20 nM | ≤ 40 nM |  |  |  |
| CC(F)(F)CNc1ncc(/C(=C\n2cnc(-c3cc(C4CC4)nc(C(F)(F)F)c3)n2)C(N)=O)cn1 [15(15-A)] | ≤ 20 nM | ≤ 40 nM | 88.38% | 87.55% | Cmax [5]: 599 ng/mL; Tmax [5]: 3 h; half-life [5]: 209 min; AUC(0-t) [5]: 4600 ng·h/mL; AUC(0-inf) [6, 7]: 1630 ng·h/mL; clearance [6, 7]: 10.2 mL/min/kg; half-life [6, 7]: 80.4 min; AUC(0-t) [6, 7]: 1620 ng·h/mL; AUC(0-inf) [6, 8]: 4650 ng·h/mL |
| N#Cc1cncc(/C(=C\n2cnc(-c3cc(C4CC4)nc(C(F)(F)F)c3)n2)C(N)=O)c1 [Compound 30] | ≤ 20 nM | ≤ 40 nM | 89.94% | 98.75% |  |
| NC(=O)/C(=C/n1cnc(-c2cc(C3CC3)nc(C(F)(F)F)c2)n1)c1cncnc1 [Compound 13] | ≤ 20 nM | ≤ 40 nM | 91.15% | 93.23% |  |
| NC(=O)/C(=C/n1cnc(-c2cc(C3CC3)nc(C(F)(F)F)c2)n1)c1cnc2ccccc2c1 [Compound 26] | ≤ 20 nM | ≤ 40 nM | 90.27% | 96.64% |  |
| NC(=O)/C(=C/n1cnc(-c2cc(C(F)(F)F)nc(C(F)(F)F)c2)n1)c1ccc(NCC(F)(F)F)nc1 [Compound 46] | ≤ 20 nM | ≤ 40 nM |  |  |  |

Second part, led by results:

| IC50 [1] | IC50 [2] | Mouse liver microsome Residuals at 60 min (%) [3] | Human liver microsome Residuals at 60 min (%) [4] | SMILES | also measured |
| --- | --- | --- | --- | --- | --- |
| ≤ 20 nM | ≤ 40 nM |  |  | NC(=O)/C(=C/n1cnc(-c2cc(C3CC3)nc(C(F)(F)F)c2)n1)c1ccc(C(F)(F)F)nc1 [Compound 60] |  |
| ≤ 20 nM | ≤ 40 nM |  |  | NC(=O)/C(=C/n1cnc(-c2cc(C(F)(F)F)nc(C(F)(F)F)c2)n1)c1ccc(C(F)(F)F)nc1 [Compound 53] |  |
| ≤ 20 nM | ≤ 40 nM | 83.14% | 80.48% | NC(=O)/C(=C/n1cnc(-c2cc(C3CC3)nc(C(F)(F)F)c2)n1)c1cnc(NCC(F)F)nc1 [Compound 14] |  |
| ≤ 20 nM | ≤ 40 nM |  |  | NC(=O)/C(=C/n1cnc(-c2cc(C3CC3)nc(C(F)(F)F)c2)n1)c1ccc2ncccc2c1 [Compound 57] |  |
| ≤ 20 nM | ≤ 40 nM | 98.21% | 104.79% | NC(=O)/C(=C/n1cnc(-c2cc(C3CC3)nc(C(F)(F)F)c2)n1)c1cnc2cccnc2c1 [Compound 33] |  |
| ≤ 20 nM | ≤ 40 nM |  |  | NC(=O)/C(=C/n1cnc(-c2cc(C3CC3)nc(C(F)(F)F)c2)n1)c1ccc(NCC(F)F)nc1 [Compound 41] |  |
| ≤ 20 nM | ≤ 40 nM |  |  | NC(=O)/C(=C/n1cnc(-c2cc(C3CC3)nc(C(F)(F)F)c2)n1)c1ccnc(F)c1 [Compound 36] |  |
| ≤ 20 nM | ≤ 40 nM | 97.97% | 101.38% | NC(=O)C(=Cn1cnc(-c2cc(C(F)(F)F)nc(C(F)(F)F)c2)n1)c1cncnc1 [Compound 1] |  |
| ≤ 20 nM | ≤ 40 nM | 93.99% | 95.75% | N#Cc1cncc(/C(=C\n2cnc(-c3cc(C(F)(F)F)nc(C(F)(F)F)c3)n2)C(N)=O)c1 [Compound 10] |  |
| ≤ 20 nM | ≤ 40 nM | 94.26% | 95.65% | CC(F)(F)CNc1ncc(/C(=C\n2cnc(-c3cc(C(F)(F)F)nc(C(F)(F)F)c3)n2)C(N)=O)cn1 [3(3-A)] | Cmax [5]: 681 ng/mL; Tmax [5]: 3 h; half-life [5]: 168 min; AUC(0-t) [5]: 5280 ng·h/mL; AUC(0-inf) [6, 7]: 1570 ng·h/mL; clearance [6, 7]: 10.6 mL/min/kg; half-life [6, 7]: 99.6 min; AUC(0-t) [6, 7]: 1540 ng·h/mL; AUC(0-inf) [6, 8]: 5300 ng·h/mL |
| ≤ 20 nM | ≤ 40 nM | 89.18% | 106.91% | NC(=O)/C(=C/n1cnc(-c2cc(C3CC3)nc(C(F)(F)F)c2)n1)c1ccc(F)nc1 [Compound 39] |  |
| ≤ 20 nM | ≤ 40 nM |  |  | NC(=O)/C(=C/n1cnc(-c2cc(C3CC3)nc(C(F)(F)F)c2)n1)c1ccc2cccnc2c1 [59(59-A)] |  |
| ≤ 20 nM | ≤ 40 nM | 93.27% | 100.33% | NC(=O)/C(=C/n1cnc(-c2cc(C(F)(F)F)nc(C(F)(F)F)c2)n1)c1cnc(NCC(F)(F)F)nc1 [Compound 4] |  |
| ≤ 20 nM | ≤ 40 nM | 95.08% | 100.32% | NC(=O)/C(=C/n1cnc(-c2cc(C3CC3)nc(C(F)(F)F)c2)n1)c1cccnc1F [Compound 32] |  |
| ≤ 20 nM | ≤ 40 nM |  |  | NC(=O)/C(=C/n1cnc(-c2cc(C3CC3)nc(C(F)(F)F)c2)n1)c1cccc(F)n1 [Compound 37] |  |
| ≤ 20 nM | ≤ 40 nM | 83.25% | 102.40% | Cc1ccc(/C(=C\n2cnc(-c3cc(C4CC4)nc(C(F)(F)F)c3)n2)C(N)=O)cn1 [38(38-A)] | Cmax [5]: 874 ng/mL; Tmax [5]: 1 h; half-life [5]: 153 min; AUC(0-t) [5]: 3480 ng·h/mL; AUC(0-inf) [6, 7]: 1040 ng·h/mL; clearance [6, 7]: 16 mL/min/kg; half-life [6, 7]: 84.6 min; AUC(0-t) [6, 7]: 1040 ng·h/mL; AUC(0-inf) [6, 8]: 3800 ng·h/mL |
